Source: the supplement of paper PMC10307832

Experiments:
Experiment in all cases: relative viability (nuclei count vs DMSO), 5 days (fraction); higher = more cells survive
[1] = compound: COC1=C(C=C(C=C1)C2=CC3=NC=CN3C(=N2)NC4=C(C=CC=N4)C(=O)N)OC [BAY61-3606] + O=C(CCCCCCC(=O)Nc1ccccc1)NO [Vorinostat] (partner 1 µM)
Outline: (§1)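 Lung cancer cell lines in 1536-well plates got either a single drug or a fixed anchor-drug dose together with five library-drug doses (not always all listed) in √10 steps, by pin tool, on the day after seeding. Nuclei were counted after 5 days, and relative viability is the treated-to-vehicle ratio of nuclei counts. Values are medians of duplicate plates.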

[2] = compound: COc1cccc2c1C(=O)c1c(O)c3c(c(O)c1C2=O)C[C@@](O)(C(=O)CO)C[C@@H]3O[C@H]1C[C@H](N)[C@H](O)[C@H](C)O1 [Doxorubicin] + CS(=O)(=O)CCNCc1ccc(-c2ccc3ncnc(Nc4ccc(OCc5cccc(F)c5)c(Cl)c4)c3c2)o1 [Lapatinib] (partner 2 µM)
Outline: as §1

[3] = compound: COC1=C(C=C(C=C1)C2=CC3=NC=CN3C(=N2)NC4=C(C=CC=N4)C(=O)N)OC [BAY61-3606] + Nc1ncn([C@H]2C[C@H](O)[C@@H](CO)O2)c(=O)n1 [Decitabine] (partner 2 µM)
Outline: as §1

[4] = compound: COc1cccc2c1C(=O)c1c(O)c3c(c(O)c1C2=O)C[C@@](O)(C(=O)CO)C[C@@H]3O[C@H]1C[C@H](N)[C@H](O)[C@H](C)O1 [Doxorubicin] + Cc1nc(NC(=O)N2CCC[C@H]2C(N)=O)sc1-c1ccnc(C(C)(C)C(F)(F)F)c1 [Alpelisib] (partner 2 µM)
Outline: as §1

Row | Cell Line | relative viability ([1]; first compound 0.02 µM) | relative viability ([1]; first compound 0.06325 µM) | relative viability ([1]; first compound 0.2 µM) | relative viability ([1]; first compound 0.6325 µM) | relative viability ([1]; first compound 2 µM) | relative viability ([2]; first compound 0.001 µM) | relative viability ([2]; first compound 0.003162 µM) | relative viability ([2]; first compound 0.01 µM) | relative viability ([2]; first compound 0.03162 µM) | relative viability ([2]; first compound 0.1 µM) | relative viability ([3]; first compound 0.02 µM) | relative viability ([3]; first compound 0.06325 µM) | relative viability ([3]; first compound 0.2 µM) | relative viability ([3]; first compound 0.6325 µM) | relative viability ([3]; first compound 2 µM) | relative viability ([4]; first compound 0.001 µM) | relative viability ([4]; first compound 0.003162 µM) | relative viability ([4]; first compound 0.01 µM) | relative viability ([4]; first compound 0.03162 µM) | relative viability ([4]; first compound 0.1 µM)
1 | HARA | 0.547 | 0.47 | 0.415 | 0.462 | 0.466 | 0.599 | 0.591 | 0.893 | 0.62 | 0.659 | 0.515 | 0.512 | 0.67 | 0.688 | 0.585 | 0.816 | 0.845 | 0.76 | 0.782 | 0.812
2 | HCC-15 | 0.976 | 0.915 | 0.866 | 0.945 | 0.803 | 0.661 | 0.91 | 0.657 | 0.563 | 0.552 | 0.575 | 0.569 | 0.583 | 0.65 | 0.6 | 0.85 | 0.939 | 0.633 | 0.727 | 0.573
3 | HCC-44 | 1.05 | 1.05 | 1 | 0.966 | 1.26 | 0.988 | 1.02 | 0.954 | 0.979 | 0.815 | 0.939 | 0.926 | 0.931 | 0.911 | 0.957 | 0.823 | 0.801 | 0.751 | 0.78 | 0.93
4 | HCC-78 | 0.432 | 0.423 | 0.444 | 0.553 | 0.41 | 0.752 | 0.723 | 0.77 | 0.673 | 0.466 | 0.643 | 0.676 | 0.798 | 0.722 | 0.857 | 0.374 | 0.269 | 0.548 | 0.298 | 0.312
5 | HCC-366 | 0.383 | 0.385 | 0.175 | 0.345 | 0.244 |  | 1.09 | 1 | 0.168 | 0.145 | 0.379 | 0.433 | 0.396 | 0.354 | 0.296 |  | 0.348 | 0.439 | 0.369 | 0.367
6 | HCC-827 | 0.858 | 0.828 | 1.04 | 0.85 | 0.941 | 0.322 | 0.322 | 0.182 | 0.201 | 0.22 | 0.327 | 0.321 | 0.352 | 0.317 | 0.308 | 1.04 | 1.15 | 0.968 | 1.02 | 1.05
7 | IA-LM | 0.947 | 0.851 | 0.894 | 1.25 | 0.96 | 0.845 | 0.957 | 0.638 | 0.18 | 0.112 |  |  |  |  |  | 0.675 | 0.742 | 0.669 | 0.544 | 0.427
8 | LCLC-103H | 0.782 | 0.716 | 0.724 | 0.791 | 0.789 |  |  |  |  |  | 0.773 | 0.707 | 0.75 | 0.748 | 0.773 | 0.917 | 0.993 | 0.981 | 1.06 | 1.08
9 | NCI-H441 | 0.997 | 0.88 | 0.916 | 0.803 | 0.678 |  |  |  |  |  | 0.249 | 0.223 | 0.242 | 0.256 | 0.253 |  | 0.713 | 0.684 | 0.234 | 0.393
10 | NCI-H522 | 0.896 | 0.869 | 0.839 | 0.733 | 0.661 |  |  |  |  |  | 0.68 | 0.635 | 0.732 | 0.742 | 0.517 |  |  |  |  | 
11 | NCI-H1299 |  |  |  |  |  | 0.988 | 0.973 | 0.955 | 0.889 | 0.514 |  |  |  |  |  | 1.06 | 1.12 | 1.08 | 1.07 | 1.06
12 | NCI-H1563 |  |  |  |  |  | 0.721 | 0.779 | 0.661 | 0.545 | 0.549 |  |  |  |  |  | 0.888 | 0.824 | 0.726 | 0.529 | 0.51
13 | NCI-H1648 | 0.797 | 0.44 | 0.648 |  | 0.706 |  |  |  |  |  | 0.423 | 0.511 | 0.504 |  | 0.445 |  |  |  |  | 
14 | NCI-H1650 | 0.611 | 0.551 | 0.5 | 0.665 | 0.61 | 0.208 | 0.612 | 0.25 | 0.202 | 0.14 | 0.449 | 0.444 | 0.432 | 0.424 | 0.387 |  |  |  |  | 
15 | NCI-H1703 |  |  |  |  |  | 0.821 | 1.14 | 0.448 | 0.241 | 0.21 |  |  |  |  |  | 0.335 | 0.293 | 0.365 | 0.214 | 0.201
16 | NCI-H1792 |  |  |  |  |  | 0.942 | 0.911 | 0.874 | 0.865 | 0.89 | 0.605 | 0.572 | 0.547 | 0.617 | 0.493 | 0.794 | 0.836 | 0.538 | 0.679 | 0.548
17 | NCI-H2228 | 0.713 | 0.594 | 0.663 | 0.634 | 0.571 | 0.971 | 0.962 | 0.65 | 0.187 | 0.119 |  |  |  |  |  | 0.724 | 0.822 | 0.647 | 0.393 | 0.198
18 | NCI-H2342 | 0.87 | 0.818 | 0.835 | 0.867 | 0.762 |  |  |  |  |  | 0.81 | 0.853 | 0.78 | 0.78 | 0.831 |  |  |  |  | 
19 | SW 900 | 0.457 |  |  | 0.564 | 0.439 |  |  |  |  |  | 0.452 |  |  | 0.396 | 0.442 |  |  |  |  | 
